US9802918B2, “Pyridineamine compounds useful as Pim kinase inhibitors” (Incyte Corporation, priority 2015, dated 2017)

Columns and labels:
Type in all cases: biochemical
Pim-1 = Pim-1 (Homo sapiens (Human), UniProt P11309); test: Pim-1 kinase assay; conditions: 1 mM ATP; read-out: Pim1 IC50
Experimental: Supplementation of the STOP buffer with beads and stopping the reactions were done under reduced light. Prior to the stopping reactions STOP buffer with beads was preincubated for 1 h in the dark at room temperature. After stopping the reactions, plates were incubated for 1 h in the dark at room temperature before reading on a PHERAstar FS plate reader (BMG Labtech) under reduced light.

Pim-3 = Pim-3 (Homo sapiens (Human), UniProt Q86V86); test: Pim-3 kinase assay; conditions: 1 mM ATP; read-out: Pim3 IC50
Method in brief: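 Human Pim-3 at 1.25 pM phosphorylated […] biotin-BAD peptide with 1 mM ATP for 1 h at 25° C, in pH 7.5 Tris buffer with 5 mM MgCl2 and 5 mM DTT. Reactions were stopped with EDTA buffer containing phospho-Bad (Ser112) antibody and AlphaScreen donor/acceptor beads. Plates were read after 1 h dark incubation at room temperature.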

Pim-2 = Pim-2 (Homo sapiens (Human), UniProt Q9P1W9); test: Pim-2 kinase assay; conditions: 1 mM ATP; read-out: Pim2 IC50
Pim-2, sequence (Q9P1W9 whole entry): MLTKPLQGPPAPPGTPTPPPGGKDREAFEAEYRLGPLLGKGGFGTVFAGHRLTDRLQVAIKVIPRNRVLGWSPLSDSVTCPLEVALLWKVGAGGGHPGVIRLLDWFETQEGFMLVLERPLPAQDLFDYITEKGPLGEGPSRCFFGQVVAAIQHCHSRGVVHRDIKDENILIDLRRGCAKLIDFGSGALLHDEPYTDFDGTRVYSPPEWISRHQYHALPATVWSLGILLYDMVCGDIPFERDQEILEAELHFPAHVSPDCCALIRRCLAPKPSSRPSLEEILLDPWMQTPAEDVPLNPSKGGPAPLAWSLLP
Method in brief: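 Pim-2 (1 nM) with fluorescein-CREBtide ([…]) and 1 mM ATP in Tris pH 7.5, MgCl2, DTT buffer, 2 h at 25 °C. Stopped with EDTA plus Tb-anti-CREB pSer133 antibody; phosphorylation read by TR-FRET after 30 min.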

Pim-1, sequence (P11309 whole entry): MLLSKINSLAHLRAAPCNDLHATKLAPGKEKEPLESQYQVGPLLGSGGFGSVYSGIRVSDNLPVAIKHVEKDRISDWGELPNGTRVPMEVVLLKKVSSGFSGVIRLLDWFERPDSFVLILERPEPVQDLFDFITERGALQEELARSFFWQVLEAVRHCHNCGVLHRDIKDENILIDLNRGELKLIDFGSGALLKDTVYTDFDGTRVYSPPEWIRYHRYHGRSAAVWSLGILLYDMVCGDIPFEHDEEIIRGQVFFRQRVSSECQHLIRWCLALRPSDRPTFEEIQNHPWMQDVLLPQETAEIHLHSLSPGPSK

| SMILES | IC50 (Pim-1) [nM] | IC50 (Pim-3) [nM] | IC50 (Pim-2) [nM] |
| --- | --- | --- | --- |
| C[C@@H]1C[C@H](N)CN(c2ccncc2NCc2ccc(F)c(-c3c(F)cc(O[C@H]4CCOC4)cc3F)n2)C1 [Example 76, 4-[(3S,5R)-3-Amino-5-methylpiperidin-1-yl]-N-[(6-{2,6-difluoro-4-[(3S)-tetrahydrofuran-3-yloxy]phenyl}-5-fluoropyridin-2-yl)methyl]pyridin-3-amine] | < 10 | ≤ 10 | ≤ 100 |
| C[C@H]1CN(c2ccncc2NCc2ccc(F)c(-c3c(F)cc(OC4CCOCC4)cc3F)n2)C[C@@H](N)[C@@H]1O [Example 77, (3R,4R,5S)-3-Amino-1-{3-[({6-[2,6-difluoro-4-(tetrahydro-2H-pyran-4-yloxy)phenyl]-5-fluoropyridin-2-yl}methyl)amino]pyridin-4-yl}-5-methylpiperidin-4-ol] | < 10 | ≤ 10 | ≤ 100 |
| C[C@@H]1C[C@H](N)CN(c2ccncc2NCc2ccc(F)c(-c3c(F)cc(OC4CCOCC4)cc3F)n2)C1 [Example 78, 4-[(3S,5R)-3-Amino-5-methylpiperidin-1-yl]-N-({6-[2,6-difluoro-4-(tetrahydro-2H-pyran-4-yloxy)phenyl]-5-fluoropyridin-2-yl}methyl)pyridin-3-amine] | < 10 | ≤ 10 | ≤ 100 |
| COc1cc(F)c(-c2nc(CNc3cnccc3N3C[C@@H](N)[C@H](O)[C@@H](C)C3)ccc2F)c(F)c1 [Example 82, (3R,4R,5S)-3-Amino-1-[3-({[6-(2,6-difluoro-4-methoxyphenyl)-5-fluoropyridin-2-yl]methyl}amino)pyridin-4-yl]-5-methylpiperidin-4-ol] | < 10 | ≤ 10 | ≤ 100 |
| COc1cc(F)c(-c2nc(CNc3cnccc3N3C[C@H](C)C[C@H](N)C3)ccc2F)c(F)c1 [Example 83, 4-[(3S,5R)-3-Amino-5-methylpiperidin-1-yl]-N-{[6-(2,6-difluoro-4-methoxyphenyl)-5-fluoropyridin-2-yl]methyl}pyridin-3-amine] | < 10 | ≤ 10 | ≤ 100 |
| C[C@@H]1C[C@H](N)CN(c2ccncc2NCc2ccc(F)c(-c3ccc(C#N)cc3F)n2)C1 [Example 84, 4-{6-[({4-[(3S,5R)-3-Amino-5-methylpiperidin-1-yl]pyridin-3-yl}amino)methyl]-3-fluoropyridin-2-yl}-3-fluorobenzonitrile] | < 10 | ≤ 10 | 100 to 1000 |
| C[C@@H]1C[C@H](N)CN(c2ccncc2NCc2ccc(F)c(-c3ccc4sccc4c3)n2)C1 [Example 85, 4-[(3S,5R)-3-Amino-5-methylpiperidin-1-yl]-N-{[6-(1-benzothien-5-yl)-5-fluoropyridin-2-yl]methyl}pyridin-3-amine] | < 10 | ≤ 10 | 100 to 1000 |
| C[C@@H]1C[C@H](N)CN(c2ccncc2NCc2ccc(F)c(-c3ccc4c(c3)NC(=O)C4)n2)C1 [Example 86, 6-{6-[({4-[(3S,5R)-3-Amino-5-methylpiperidin-1-yl]pyridin-3-yl}amino)methyl]-3-fluoropyridin-2-yl}-1,3-dihydro-2H-indol-2-one] | < 10 | ≤ 10 | 100 to 1000 |
| C[C@H]1CN(c2c(NCc3ccc(F)c(-c4c(F)cccc4F)n3)cnc3c2CCO3)C[C@@H](N)[C@@H]1O [Example 88, (3R,4R,5S)-3-Amino-1-[5-({[6-(2,6-difluorophenyl)-5-fluoropyridin-2-yl]methyl}amino)-2,3-dihydrofuro[2,3-b]pyridin-4-yl]-5-methylpiperidin-4-ol] | < 10 | ≤ 10 | 1000 to 10000 |
| C[C@@H]1C[C@H](N)CN(c2c(NCc3ccc(F)c(-c4c(F)cccc4F)n3)cnc3c2CCC3)C1 [Example 89, 4-[(3S,5R)-3-Amino-5-methylpiperidin-1-yl]-N-{[6-(2,6-difluorophenyl)-5-fluoropyridin-2-yl]methyl}-6,7-dihydro-5H-cyclopenta[b]pyridin-3-amine] | < 10 | ≤ 10 | 100 to 1000 |
| N[C@@H]1CN(c2ccncc2NCc2ccc(F)c(-c3c(F)cccc3F)n2)CC[C@H]1F [Example 90, 4-[(3R,4R)-3-Amino-4-fluoropiperidin-1-yl]-N-{[6-(2,6-difluorophenyl)-5-fluoropyridin-2-yl]methyl}pyridin-3-amine] | < 10 | ≤ 10 | 1000 to 10000 |
| C[C@@H]1C[C@H](N)CN(c2ccncc2NCc2ccc3ccc(-c4ccc5c(c4)OCC5)cc3n2)C1 [Example 91, 4-[(3S,5R)-3-Amino-5-methylpiperidin-1-yl]-N-{[7-(2,3-dihydro-1-benzofuran-6-yl)quinolin-2-yl]methyl}pyridin-3-amine] | < 10 | ≤ 10 | 100 to 1000 |
| C[C@@H]1C[C@H](N)CN(c2ccncc2NCc2ccc3ccc(-c4ccn5ccnc5c4)cc3n2)C1 [Example 92, 4-[(3S,5R)-3-Amino-5-methylpiperidin-1-yl]-N-[(7-imidazo[1,2-a]pyridin-7-ylquinolin-2-yl)methyl]pyridin-3-amine] | < 10 | ≤ 10 | 100 to 1000 |
| C[C@H]1CN(c2ccncc2NCc2ccc3ccc(-c4ccn5ccnc5c4)cc3n2)C[C@@H](N)[C@@H]1O [Example 93, (3R,4R,5S)-3-Amino-1-(3-{[(7-imidazo[1,2-a]pyridin-7-ylquinolin-2-yl)methyl]amino}pyridin-4-yl)-5-methylpiperidin-4-ol] | < 10 | ≤ 10 | 100 to 1000 |
| C[C@H]1CN(c2ccncc2NCc2ccc3occ(-c4c(F)cc(CO)cc4F)c3n2)C[C@@H](N)[C@@H]1O [Example 96, (3R,4R,5S)-3-amino-1-(3-(((3-(2,6-difluoro-4-(hydroxymethyl)phenyl)furo[3,2-b]pyridin-5-yl)methyl)amino)pyridin-4-yl)-5-methylpiperidin-4-ol] | < 10 | ≤ 10 | 100 to 1000 |
| C[C@H]1CN(c2ccncc2NCc2ccc3occ(-c4ccc(CO)cc4F)c3n2)C[C@@H](N)[C@@H]1O [Example 97, (3R,4R,5S)-3-amino-1-(3-(((3-(2-fluoro-4-(hydroxymethyl)phenyl)furo[3,2-b]pyridin-5-yl)methyl)amino)pyridin-4-yl)-5-methylpiperidin-4-ol] | 10 to 50 | ≤ 10 | 100 to 1000 |
| CC(C)c1coc2ccc(CNc3cnccc3N3C[C@H](C)C[C@H](N)C3)nc12 [Example 98, 4-[(3S,5R)-3-Amino-5-methylpiperidin-1-yl]-N-[(3-isopropylfuro[3,2-b]pyridin-5-yl)methyl]pyridin-3-amine] | < 10 | ≤ 10 | 100 to 1000 |
| C[C@@H]1C[C@H](N)CN(c2ccncc2NCc2ccc3occ(-c4c(F)cc(CO)cc4F)c3n2)C1 [Example 99, (4-(5-((4-((3S,5R)-3-amino-5-methylpiperidin-1-yl)pyridin-3-ylamino)methyl)furo[3,2-b]pyridin-3-yl)-3,5-difluorophenyl)methanol] | < 10 | ≤ 10 | ≤ 100 |
| C[C@@H]1C[C@H](N)CN(c2ccncc2NCc2ccc3occ(-c4ccc(CO)cc4F)c3n2)C1 [Example 100, (4-(5-((4-((3S,5R)-3-amino-5-methylpiperidin-1-yl)pyridin-3-ylamino)methyl)furo[3,2-b]pyridin-3-yl)-3-fluorophenyl)methanol] | < 10 | ≤ 10 | ≤ 100 |
| C[C@@H]1C[C@H](N)CN(c2ccncc2NCc2ccc3occ(C4CC4)c3n2)C1 [Example 102, 4-[(3S,5R)-3-Amino-5-methylpiperidin-1-yl]-N-[(3-cyclopropylfuro[3,2-b]pyridin-5-yl)methyl]pyridin-3-amine] | < 10 | ≤ 10 | 100 to 1000 |
| C[C@@H]1C[C@H](N)CN(c2ccncc2NCc2ccc(F)c(-c3c(F)cc(OCC(C)(C)O)cc3F)n2)C1 [Example 103, 1-(4-{6-[({4-[(3S,5R)-3-Amino-5-methylpiperidin-1-yl]pyridin-3-yl}amino)methyl]-3-fluoropyridin-2-yl}-3,5-difluorophenoxy)-2-methylpropan-2-ol] | < 10 | ≤ 10 | ≤ 100 |
| C[C@H]1CN(c2ccncc2NCc2ccc(F)c(-c3c(F)cc(OCC(C)(C)O)cc3F)n2)C[C@@H](N)[C@@H]1O [Example 104, (3R,4R,5S)-3-Amino-1-{3-[({6-[2,6-difluoro-4-(2-hydroxy-2-methylpropoxy)phenyl]-5-fluoropyridin-2-yl}methyl)amino]pyridin-4-yl}-5-methylpiperidin-4-ol] | < 10 | ≤ 10 | 100 to 1000 |
| C[C@@H]1C[C@H](N)CN(c2ccncc2NCc2ccc(F)c(-c3c(F)cc(C(C)(C)O)cc3F)n2)C1 [Example 105, 2-(4-{6-[({4-[(3S,5R)-3-Amino-5-methylpiperidin-1-yl]pyridin-3-yl}amino)methyl]-3-fluoropyridin-2-yl}-3,5-difluorophenyl)propan-2-ol] | < 10 | ≤ 10 | ≤ 100 |
